ChEMBL document CHEMBL1155703, “Sequences and antimycoplasmic properties of longibrachins LGB II and LGB III, two novel 20-residue peptaibols from Trichoderma longibrachiatum” (J Nat Prod, 2001)
In brackets after ≈: the same amount, converted by molar mass. Square brackets hold non-standard residues; d marks the D form. Peptide text beside a SMILES is read from it. * marks the point of attachment. X2 = OC[C@H](Cc1c[nH]c2ccccc12)N*; Phe(ol) = N[C@H](CO)Cc1ccccc1; X1 = COC[C@H](Cc1ccccc1)N*; Aib = CC(C)(N)C(=O)O

Key:
[1] = Bilayer membrane permeabilization assessed as lipid to peptide ratio allowing 50% leakage of entrapped carboxyfluorescein from egg phosphatidylcholine-cholesterol liposomes at 1.36 uM at 20 mins by spectrofluorimetry; type: physicochemical
[2] = Bilayer membrane permeabilization assessed as lipid to peptide ratio allowing 50% leakage of entrapped carboxyfluorescein from egg phosphatidylcholine-cholesterol liposomes at 0.18 uM at 20 mins by spectrofluorimetry; type: physicochemical
[3] = Bilayer membrane permeabilization assessed as lipid to peptide ratio allowing 50% leakage of entrapped carboxyfluorescein from egg phosphatidylcholine-cholesterol liposomes at 0.45 uM at 20 mins by spectrofluorimetry; type: physicochemical
[4] = test system: Mycoplasma mycoides subsp. mycoides SC; assay: Antimicrobial activity against Mycoplasma mycoides subsp. mycoides SC KH3J after 2 hrs; type: functional
Acholeplasma laidlawii = assay: Antimicrobial activity against Acholeplasma laidlawii PG-8A after 2 hrs; type: functional; details: for MIC: Acholeplasma laidlawii, PG-8A, 2 h
Spiroplasma floricola = assay: Antimicrobial activity against Spiroplasma floricola BNR1 after 2 hrs; type: functional; details: for MIC: Spiroplasma floricola, BNR1, 2 h
Spiroplasma apis = assay: Antimicrobial activity against Spiroplasma apis B31 after 2 hrs; type: functional; details: for MIC: Spiroplasma apis, B31, 2 h
Spiroplasma citri = assay: Antimicrobial activity against Spiroplasma citri R8A2 after 2 hrs; type: functional; details: R8A2, 2 h
[5] = test system: Mycoplasmoides gallisepticum; assay: Antimicrobial activity against Mycoplasma gallisepticum S6 after 2 hrs; type: functional; details: for MIC: Mycoplasmoides gallisepticum, S6, 2 h
[6] = Bilayer membrane permeabilization assessed as lipid to peptide ratio allowing 50% leakage of entrapped carboxyfluorescein from egg phosphatidylcholine-cholesterol liposomes at 0.36 uM at 20 mins by spectrofluorimetry; type: physicochemical
[7] = Bilayer membrane permeabilization assessed as lipid to peptide ratio allowing 50% leakage of entrapped carboxyfluorescein from egg phosphatidylcholine-cholesterol liposomes at 0.98 uM at 20 mins by spectrofluorimetry; type: physicochemical

CC[C@H](C)[C@H](NC(=O)C(C)(C)NC(=O)[C@@H](NC(=O)[C@@H]1CCCN1C(=O)C(C)(C)NC(=O)[C@H](CC(C)C)NC(=O)[C@H](CO)NC(=O)C(C)(C)NC(=O)C(C)(C)NC(=O)C(C)(C)NC(=O)[C@H](CCC(N)=O)NC(=O)C(C)(C)NC(=O)C(C)(C)NC(=O)[C@H](C)NC(=O)[C@H](C)NC(=O)C(C)(C)NC(C)=O)C(C)C)C(=O)N[C@@H](CCC(N)=O)C(=O)N[C@@H](CCC(=O)O)C(=O)N[C@H](CO)Cc1c[nH]c2ccccc12 (Ac-[Aib]AA[Aib][Aib]Q[Aib][Aib][Aib]SL[Aib]PV[Aib]IQE-X2)
Ratio [1]: 295

CC[C@H](C)[C@H](NC(=O)C(C)(C)NC(=O)[C@@H](NC(=O)[C@@H]1CCCN1C(=O)C(C)(C)NC(=O)[C@H](CC(C)C)NC(=O)[C@H](CO)NC(=O)C(C)(C)NC(=O)C(C)(C)NC(=O)C(C)(C)NC(=O)[C@H](CCC(N)=O)NC(=O)C(C)(C)NC(=O)C(C)(C)NC(=O)[C@H](C)NC(=O)[C@H](C)NC(=O)C(C)(C)NC(C)=O)C(C)C)C(=O)N[C@@H](CCC(N)=O)C(=O)N[C@@H](CCC(N)=O)C(=O)N[C@H](CO)Cc1c[nH]c2ccccc12 (Ac-[Aib]AA[Aib][Aib]Q[Aib][Aib][Aib]SL[Aib]PV[Aib]IQQ-X2)
Ratio [2]: 2220

COC[C@H](Cc1ccccc1)NC(=O)[C@H](CCC(N)=O)NC(=O)[C@H](CCC(=O)O)NC(=O)C(C)(C)NC(=O)C(C)(C)NC(=O)[C@@H](NC(=O)[C@@H]1CCCN1C(=O)C(C)(C)NC(=O)[C@H](CC(C)C)NC(=O)CNC(=O)C(C)(C)NC(=O)[C@@H](NC(=O)C(C)(C)NC(=O)[C@H](CCC(N)=O)NC(=O)[C@H](C)NC(=O)C(C)(C)NC(=O)[C@H](C)NC(=O)C(C)(C)NC(=O)[C@H](C)NC(=O)C(C)(C)NC(C)=O)C(C)C)C(C)C (Ac-[Aib]A[Aib]A[Aib]AQ[Aib]V[Aib]GL[Aib]PV[Aib][Aib]EQ-X1)
Ratio [3]: 1335

CC(=O)NC(C)(C)C(=O)N[C@@H](C)C(=O)NC(C)(C)C(=O)N[C@@H](C)C(=O)NC(C)(C)C(=O)N[C@@H](C)C(=O)N[C@@H](CCC(N)=O)C(=O)NC(C)(C)C(=O)N[C@H](C(=O)NC(C)(C)C(=O)NCC(=O)N[C@@H](CC(C)C)C(=O)NC(C)(C)C(=O)N1CCC[C@H]1C(=O)N[C@H](C(=O)NC(C)(C)C(=O)NC(C)(C)C(=O)N[C@@H](CCC(=O)O)C(=O)N[C@@H](CCC(N)=O)C(=O)N[C@H](CO)Cc1ccccc1)C(C)C)C(C)C (Ac-[Aib]A[Aib]A[Aib]AQ[Aib]V[Aib]GL[Aib]PV[Aib][Aib]EQ[Phe(ol)])
MIC [4]: 12.5 µM (≈ 24.2 µg/mL) | MLC (Acholeplasma laidlawii): 3.12 µM (≈ 6.05 µg/mL) | MIC (Acholeplasma laidlawii): 1.56 µM (≈ 3.02 µg/mL) | MLC (Spiroplasma floricola): 3.12 µM (≈ 6.05 µg/mL) | MIC (Spiroplasma floricola): 12.5 µM (≈ 24.2 µg/mL) | MLC (Spiroplasma apis): 3.12 µM (≈ 6.05 µg/mL) | MIC (Spiroplasma apis): 12.5 µM (≈ 24.2 µg/mL) | MIC (Spiroplasma citri): 6.25 µM (≈ 12.1 µg/mL) | MLC [5]: 3.12 µM (≈ 6.05 µg/mL) | MIC [5]: 6.25 µM (≈ 12.1 µg/mL)

CC(=O)NC(C)(C)C(=O)N[C@@H](C)C(=O)NC(C)(C)C(=O)N[C@@H](C)C(=O)NC(C)(C)C(=O)N[C@@H](C)C(=O)N[C@@H](CCC(N)=O)C(=O)NC(C)(C)C(=O)N[C@H](C(=O)NC(C)(C)C(=O)NCC(=O)N[C@@H](CC(C)C)C(=O)NC(C)(C)C(=O)N1CCC[C@H]1C(=O)N[C@H](C(=O)NC(C)(C)C(=O)NC(C)(C)C(=O)N[C@@H](CCC(N)=O)C(=O)N[C@@H](CCC(N)=O)C(=O)N[C@H](CO)Cc1ccccc1)C(C)C)C(C)C (Ac-[Aib]A[Aib]A[Aib]AQ[Aib]V[Aib]GL[Aib]PV[Aib][Aib]QQ[Phe(ol)])
Ratio [6]: 1667

CC(=O)NC(C)(C)C(=O)N[C@@H](C)C(=O)NC(C)(C)C(=O)N[C@@H](C)C(=O)NC(C)(C)C(=O)NC(C)(C)C(=O)N[C@@H](CCC(N)=O)C(=O)NC(C)(C)C(=O)N[C@H](C(=O)NC(C)(C)C(=O)NCC(=O)N[C@@H](CC(C)C)C(=O)NC(C)(C)C(=O)N1CCC[C@H]1C(=O)N[C@H](C(=O)NC(C)(C)C(=O)NC(C)(C)C(=O)N[C@@H](CCC(N)=O)C(=O)N[C@@H](CCC(N)=O)C(=O)N[C@H](CO)Cc1ccccc1)C(C)C)C(C)C (Ac-[Aib]A[Aib]A[Aib][Aib]Q[Aib]V[Aib]GL[Aib]PV[Aib][Aib]QQ[Phe(ol)])
Ratio [7]: 1820

CC(=O)NC(C)(C)C(=O)N1CCC[C@H]1C(=O)NC(C)(C)C(=O)N[C@@H](C)C(=O)NC(C)(C)C(=O)N[C@@H](C)C(=O)N[C@@H](CCC(N)=O)C(=O)NC(C)(C)C(=O)N[C@H](C(=O)NC(C)(C)C(=O)NCC(=O)N[C@@H](CC(C)C)C(=O)NC(C)(C)C(=O)N1CCC[C@H]1C(=O)N[C@H](C(=O)NC(C)(C)C(=O)NC(C)(C)C(=O)N[C@@H](CCC(N)=O)C(=O)N[C@@H](CCC(N)=O)C(=O)N[C@H](CO)Cc1ccccc1)C(C)C)C(C)C [ALAMETHICIN F50] (Ac-[Aib]P[Aib]A[Aib]AQ[Aib]V[Aib]GL[Aib]PV[Aib][Aib]QQ[Phe(ol)])
MIC [4]: 12.5 µM (≈ 24.5 µg/mL) | MIC (Acholeplasma laidlawii): 1.56 µM (≈ 3.06 µg/mL) | MIC (Spiroplasma floricola): 6.25 µM (≈ 12.3 µg/mL) | MIC (Spiroplasma apis): 6.25 µM (≈ 12.3 µg/mL) | MIC (Spiroplasma citri): 3.12 µM (≈ 6.13 µg/mL) | MIC [5]: 6.25 µM (≈ 12.3 µg/mL)
